Reference: PMC4942689, “Deciphering the function of the CNGB1b subunit in olfactory CNG channels” (Scientific Reports, 2016)

Experiments:
[1] = target: T1, homotetrameric CNGA2 channels (Rattus norvegicus, UniProt Q00195); assay: Concentration-activation relationship, inside-out patch-clamp, Xenopus oocytes; format: biochemical
T1 construct: expressed in transfected cells; host or cells: Xenopus laevis oocytes (cRNA injection), excised inside-out patches
Experimental: Patch-clamp experiments were performed using an Axopatch 200B amplifier (Molecular Devices LLC, CA, U.S.A.) in the inside-out configuration. The patch pipettes for recording of macroscopic currents were pulled from borosilicate glass tubing (outer diameter 2.0 mm, inner diameter 1.0 mm; Hilgenberg GmbH, Germany). […] The patches were formed as pushed inside-out patches. […] Cyclic nucleotide concentration jumps were performed using a double-barreled glass pipette mounted on a piezo-driven device. Intracellular (bath) and extracellular (pipette) solutions contained (mM) 150 KCl, 1 EGTA, 5 Hepes, pH = 7.4 with KOH. […] Currents in the absence of the cyclic nucleotide were subtracted. All patches included in this study were first tested for channel expression in the presence of a saturating ligand concentration. Only patches with large current, i.e. a large number of channels, were included in our statistics. The currents were measured at +10 mV or, if mentioned, at +100 mV. Fits of equations to data points were performed with the 8.1G® software (OriginLab Corporation, Northampton, U.S.A.). Concentration-activation relationships were obtained by relating the actual current amplitude, I, to the maximum current amplitude elicited by a saturating concentration of ligand, Imax, and plotting this ratio as function of the ligand concentration, x. […]

CNGA2TM:A4 = target: T2, CNGA2TM:A4 (Rattus norvegicus, UniProt Q00195+Q64359, T539M); assay: Ligand binding, confocal patch-clamp fluorometry; set-up: key: +: ligand binding to the respective modulatory subunits was either observed or not; −: ligand binding to the respective modulatory subunits was either observed or not; settings: 10 μM; construct CNGA2TM:A4
T2 construct: expressed in transfected cells; host or cells: Xenopus laevis oocytes (cRNA injection), excised patches
From the text: (§1) The channels to be studied were expressed in Xenopus oocytes. We first tested the subunit composition in our channels when coexpressing different combinations of subunits by single-channel recordings. For CNGA2:A4, CNGA2:B1b and CNGA2:A4:B1b channels we exclusively obtained the specific and easily distinguishable single-channel activity reported earlier when injecting respective amounts of RNA[7][13]. We therefore assumed that the channels formed had always the expected subunit composition. The specific binding of cyclic nucleotides and the activation of the CNG channels were measured in parallel by means of confocal patch-clamp fluorometry in excised patches, using fluorescent cyclic nucleotide derivatives. The method has been described previously.
(§2) The ligand binding was measured in macropatches by patch-clamp fluorometry[41][42] combined with confocal microscopy. […] Recordings were performed with an LSM 510 or 710 confocal microscope (Zeiss, Jena, Germany) and were triggered by the ISO3 software (MFK, Niedernhausen, Germany). To distinguish between the fluorescence of the unbound ligands from that of the bound ligands, a second dye, DY647 (Dyomics, Jena, Germany), was added to the bath solution. The 543-nm and 633-nm lines of a He-Ne laser were used to excite fcAMP/fcGMP and DY647, respectively. The method of confocal patch-clamp fluorometry has been described in detail previously.

CNGA2TM:A4RE:B1bRE = target: T3, CNGA2TM:A4RE:B1bRE (Rattus norvegicus, UniProt A0A8I5ZN27+Q00195+Q64359, R1106E/R430E/T539M); assay: Ligand binding, confocal patch-clamp fluorometry; set-up: key: +: ligand binding to the respective modulatory subunits was either observed or not; −: ligand binding to the respective modulatory subunits was either observed or not; settings: 10 μM; construct CNGA2TM:A4RE:B1bRE
T3 construct: expressed in transfected cells; host or cells: Xenopus laevis oocytes (cRNA injection), excised inside-out patches
From the text: as §1
To verify the hypothesis that the CNGB1b subunit in CNGA2:A4:B1b channels binds cyclic nucleotides, we coexpressed CNGB1b with CNGA4RE and either CNGA2RE or CNGA2TM and measured ligand binding in the presence of 10 μM fcGMP. […]
The ligand binding was measured in macropatches by patch-clamp fluorometry[41][42] combined with confocal microscopy. […] To distinguish between the fluorescence of the unbound ligands from that of the bound ligands, a second dye, DY647 (Dyomics, Jena, Germany), was added to the bath solution. […]

CNGA2TM:B1b = target: T4, CNGA2TM:B1b (Rattus norvegicus, UniProt A0A8I5ZN27+Q00195, T539M); assay: Ligand binding, confocal patch-clamp fluorometry; set-up: key to Ligand binding to CNGB1b: +: ligand binding to the respective modulatory subunits was either observed or not; −: ligand binding to the respective modulatory subunits was either observed or not
T4 construct: expressed in transfected cells; host or cells: Xenopus laevis oocytes (cRNA injection), excised patches
From the text: as §1
(§3) To study ligand binding to the CNGB1b subunit selectively, the binding domain of the CNGA2 subunits was disabled by either the point mutation R538E (red crosses in the cartoons) or T539M (blue crosses in the cartoons)[13][20]. […] To this end, CNGB1b was coexpressed with CNGA2RE.
as §2

CNGA2RE:B1b = target: T5, CNGA2RE:B1b (Rattus norvegicus, UniProt A0A8I5ZN27+Q00195, R538E); assay: Ligand binding, confocal patch-clamp fluorometry; set-up: key to Ligand binding to CNGB1b: +: ligand binding to the respective modulatory subunits was either observed or not; −: ligand binding to the respective modulatory subunits was either observed or not; settings: 10 μM; construct CNGA2RE:B1b
T5 construct: expressed in transfected cells; host or cells: Xenopus laevis oocytes (cRNA injection), excised patches
From the text: as §1, §3, §2

CNGA4 = system: CNGA4; set-up: method as in Nache et al., 2012; key: +: ligand binding to the respective modulatory subunits was either observed or not; −: ligand binding to the respective modulatory subunits was either observed or not; settings: 10 μM; construct CNGA4; ref Nache et al., 2012; cited from earlier work

T1 sequence (Q00195 whole entry): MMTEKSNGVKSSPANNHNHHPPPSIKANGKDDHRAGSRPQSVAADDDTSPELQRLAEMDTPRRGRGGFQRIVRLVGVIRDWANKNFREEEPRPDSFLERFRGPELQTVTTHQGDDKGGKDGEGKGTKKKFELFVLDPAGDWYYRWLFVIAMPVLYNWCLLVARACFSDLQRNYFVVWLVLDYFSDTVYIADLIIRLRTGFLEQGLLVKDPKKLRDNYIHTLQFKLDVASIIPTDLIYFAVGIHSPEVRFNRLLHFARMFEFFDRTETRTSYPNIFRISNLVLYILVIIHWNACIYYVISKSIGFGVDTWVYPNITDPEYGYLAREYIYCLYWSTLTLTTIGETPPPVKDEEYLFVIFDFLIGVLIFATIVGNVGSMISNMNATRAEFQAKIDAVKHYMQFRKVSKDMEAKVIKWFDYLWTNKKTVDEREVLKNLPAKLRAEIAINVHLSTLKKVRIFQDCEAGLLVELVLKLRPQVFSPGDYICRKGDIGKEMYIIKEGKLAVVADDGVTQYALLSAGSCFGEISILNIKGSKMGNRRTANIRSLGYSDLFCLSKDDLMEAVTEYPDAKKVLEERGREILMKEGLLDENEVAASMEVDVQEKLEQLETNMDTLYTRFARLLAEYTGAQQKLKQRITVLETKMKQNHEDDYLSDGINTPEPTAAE
T3 sequence (Q00195 whole entry T539M): as the sequence (Q00195 whole entry) above, with T539M counted along it
T3 sequence (Q64359 whole entry R430E): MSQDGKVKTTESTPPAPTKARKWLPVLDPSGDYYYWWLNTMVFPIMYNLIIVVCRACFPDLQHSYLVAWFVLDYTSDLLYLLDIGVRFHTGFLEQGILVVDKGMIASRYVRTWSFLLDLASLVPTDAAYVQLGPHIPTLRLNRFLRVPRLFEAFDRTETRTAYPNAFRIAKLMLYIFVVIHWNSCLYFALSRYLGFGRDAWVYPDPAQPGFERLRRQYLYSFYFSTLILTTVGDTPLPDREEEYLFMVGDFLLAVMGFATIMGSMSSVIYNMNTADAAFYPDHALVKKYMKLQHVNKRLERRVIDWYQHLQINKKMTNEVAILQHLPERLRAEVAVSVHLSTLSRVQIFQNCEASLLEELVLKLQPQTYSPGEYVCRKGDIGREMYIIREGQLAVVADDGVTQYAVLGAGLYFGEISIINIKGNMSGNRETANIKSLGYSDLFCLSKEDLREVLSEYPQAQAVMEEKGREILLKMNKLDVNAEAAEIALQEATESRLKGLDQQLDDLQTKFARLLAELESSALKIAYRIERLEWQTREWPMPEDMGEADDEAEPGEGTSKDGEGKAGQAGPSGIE
T3 sequence (A0A8I5ZN27 1-858 isoform A0A8I5ZN27-2 R657E): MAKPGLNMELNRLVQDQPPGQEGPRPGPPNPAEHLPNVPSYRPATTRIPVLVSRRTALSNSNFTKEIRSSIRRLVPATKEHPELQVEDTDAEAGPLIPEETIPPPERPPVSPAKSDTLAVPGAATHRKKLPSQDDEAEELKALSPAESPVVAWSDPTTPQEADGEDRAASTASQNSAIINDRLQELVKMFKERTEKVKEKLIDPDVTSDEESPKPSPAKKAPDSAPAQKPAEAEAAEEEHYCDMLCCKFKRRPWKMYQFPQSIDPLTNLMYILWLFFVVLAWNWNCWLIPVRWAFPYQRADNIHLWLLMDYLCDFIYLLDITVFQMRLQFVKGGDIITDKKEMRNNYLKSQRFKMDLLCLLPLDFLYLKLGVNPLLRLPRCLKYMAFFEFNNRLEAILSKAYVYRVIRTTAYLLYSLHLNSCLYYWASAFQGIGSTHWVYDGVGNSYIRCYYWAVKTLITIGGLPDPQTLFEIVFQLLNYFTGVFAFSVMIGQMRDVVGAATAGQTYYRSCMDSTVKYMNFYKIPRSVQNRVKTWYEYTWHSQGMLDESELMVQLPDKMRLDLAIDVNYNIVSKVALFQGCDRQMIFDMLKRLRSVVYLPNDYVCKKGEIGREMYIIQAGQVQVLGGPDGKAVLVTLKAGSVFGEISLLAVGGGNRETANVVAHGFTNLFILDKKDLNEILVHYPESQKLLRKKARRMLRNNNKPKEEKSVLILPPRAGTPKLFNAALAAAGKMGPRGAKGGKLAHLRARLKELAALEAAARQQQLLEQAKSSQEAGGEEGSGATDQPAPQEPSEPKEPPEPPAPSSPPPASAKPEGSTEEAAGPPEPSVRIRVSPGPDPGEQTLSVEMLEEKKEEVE
T4 sequence (Q00195 whole entry T539M): as the sequence (Q00195 whole entry) above, with T539M counted along it
T4 sequence (A0A8I5ZN27 1-858 isoform A0A8I5ZN27-2, stated change not applied): as the sequence (A0A8I5ZN27 1-858 isoform A0A8I5ZN27-2 R657E) above, with E657R counted along it
T5 sequence (Q00195 whole entry R538E): as the sequence (Q00195 whole entry) above, with R538E counted along it
T5 sequence (A0A8I5ZN27 1-858 isoform A0A8I5ZN27-2, stated change not applied): as the sequence (A0A8I5ZN27 1-858 isoform A0A8I5ZN27-2 R657E) above, with E657R counted along it
T2 sequence (Q00195 whole entry T539M): as the sequence (Q00195 whole entry) above, with T539M counted along it
T2 sequence (Q64359 whole entry): as the sequence (Q64359 whole entry R430E) above, with E430R counted along it

| Compound | H ([1]; Hill coefficient, Equation 1) | EC50 ([1]; fit with Equation 1) [nM] | Ligand binding to CNGA4 (CNGA2TM:A4) | Ligand binding to CNGA4 (CNGA2TM:A4RE:B1bRE) | Ligand binding to CNGB1b (CNGA2TM:A4RE:B1bRE) | binding to CNGB1b (in words) (CNGA2TM:B1b; 10 μM fcGMP, coexpressed with disabled CNGA2 (CNGA2TM)) | Ligand binding to CNGB1b (CNGA2TM:B1b; 10 μM, construct CNGA2TM:B1b) | Ligand binding to CNGB1b (CNGA2RE:B1b) | Ligand binding to CNGA4 (CNGA4) |
| --- | --- | --- | --- | --- | --- | --- | --- | --- | --- |
| Nc1nc2c(ncn2[C@@H]2O[C@@H]3COP(=O)(O)O[C@H]3[C@H]2O)c(=O)[nH]1 [cGMP] | 1.9 | 1740 |  |  |  |  |  |  |  |
| 8-[DY-547]-AET-cGMP [fcGMP] |  |  | + | − | − | does not bind | − | − | − |
